From patent EP2072037A1, “Hair dyeing compositions” (Farmen International Cosmetics Distribution S.p.A, priority 2007, dated 2009)

Tested on: HaCaT cells
Assay: MTT cytotoxicity assay on human keratinocytes (skin irritation potential)
Assay type: cell-based
Conditions: two hours
Excerpt: To evaluate the skin irritation potential of compositions C and D (containing paraphenyldiamine) illustrated in example 1, an in vitro test was used, consisting of a cytotoxicity assay performed on a line of human keratinocytes (transformed human keratinocytes, HaCaT cells) that maintain full epidermal differentiation capability.
In this case, the goal of the test was to determine the effects of compositions C and D illustrated in Example 1 on the proliferation of keratinocytes through the cell vitality test, indirectly measured by MTT staining (Mossnam T, […], J. Immunol. Methods, 65:55-63).
The specimen comprising composition C or D was previously mixed with oxidant cream in the proportion 1:1.5 and left to act for 15 minutes. […]
The cells were treated for two hours to simulate the conditions of use of the dye. At the end of the two hours, the cells were subjected to the MTT test.
From this value, the irritant potential of composition C and composition D can be estimated. Negative control comprised no treatment, whereas the surfactant sodium lauryl sulphate (SLS), whose cytotoxicity is well known, was used as positive control. Each experiment was done in triplicate, on cells plated 24 hours previously.

CCCCCCCCCCCCOS(=O)(=O)[O-].[Na+] [SLS, sodium lauryl sulphate]
Cell vitality % (versus negative control) (Dose 0.03 mg/mL): 101.5%
Cell vitality % (versus negative control) (Dose 0.06 mg/mL): 109.7%
Cell vitality % (versus negative control) (Dose 0.12 mg/mL): 74.0%
Cell vitality % (versus negative control) (Dose 0.25 mg/mL): 3.4%
Cell vitality % (versus negative control) (Dose 0.5 mg/mL): 3.1%
IC50 (Homo sapiens, 2 h, concentration reducing cell vitality by 50% versus untreated cells, theoretical value from regression curve, MTT): 148 µg/mL
